# Experimental data published in article PMC6116501, “Improved secretory expression of lignocellulolytic enzymes in Kluyveromyces marxianus by promoter and signal sequence engineering” (Biotechnology for Biofuels, 2018).
# Molecular target: T1, Est1E (uncultured bacterium, UniProt A0A345Z1H0)
# T1 construct: 3 extra residues kept; no His tag; 29 kDa theoretical; purified by ion exchange and gel filtration
# T1 sequence (A0A345Z1H0 1-248): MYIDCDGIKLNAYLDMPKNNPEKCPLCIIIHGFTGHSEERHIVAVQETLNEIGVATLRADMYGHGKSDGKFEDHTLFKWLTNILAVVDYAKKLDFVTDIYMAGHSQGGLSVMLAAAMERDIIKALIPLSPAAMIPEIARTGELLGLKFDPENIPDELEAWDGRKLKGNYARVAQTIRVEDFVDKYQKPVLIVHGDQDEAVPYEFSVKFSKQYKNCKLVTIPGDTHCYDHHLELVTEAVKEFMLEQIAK
# Test: absorbance at […] nm of released 2-chloro-4-nitrophenol
# Type: biochemical
# Conditions: about […] substrate in PBST pH […] °C, […] min (assay as described for culture supernatant; also run on purified enzyme)
smiles,measurement,value
"COc1cc(/C=C/C(=O)Oc2ccc([N+](=O)[O-])cc2Cl)ccc1O [CNPF, 2-chloro-4-nitrophenyl ferulate]",absorbance at 410 nm of released 2-chloro-4-nitrophenol,The activity of Est1E in the supernatant was measured by means of 2-chloro-4-nitrophenyl ferulate (CNPF)
